Measured values: the NIST ThermoML archive (doi:10.1021/je100832h)

Details: Liquid; for mass density: 101.32 kPa, Vibrating tube method; for vapor or sublimation pressure: Ebulliometric method (Recirculating still)

CCCCCCCCCC [decane]
Details | mass density [kg/m3] | vapor or sublimation pressure [kPa]
291.15 K | 731.22 | –
298.15 K | 726.2 | –
318.15 K | 710.9 | –
328.15 K | 703.34 | –
386.86 K | – | 15.86
390.21 K | – | 17.94
393.85 K | – | 20.43
397.62 K | – | 23.28
400.9 K | – | 26.08
403.65 K | – | 28.54
406.2 K | – | 31.1
408.52 K | – | 33.59
411.2 K | – | 36.58
413.6 K | – | 39.44
414.92 K | – | 41.05
416.83 K | – | 43.54
419.01 K | – | 46.44
420.74 K | – | 48.95
422.51 K | – | 51.55
424.11 K | – | 54.05
425.85 K | – | 56.84
427.5 K | – | 59.6
429.13 K | – | 62.41
430.69 K | – | 65.23
432.29 K | – | 68.16
433.61 K | – | 70.76
435.15 K | – | 73.71
436.57 K | – | 76.61
437.52 K | – | 78.69
438.92 K | – | 81.7
440.19 K | – | 84.46
441.29 K | – | 86.98
442.23 K | – | 89.2
443.35 K | – | 91.83
444.37 K | – | 94.3
444.8 K | – | 95.2
446.16 K | – | 98.41
446.55 K | – | 99.37
446.97 K | – | 100.62
447.3 K | – | 101.32
448.21 K | – | 103.75
449.29 K | – | 106.58
450.33 K | – | 109.39
451.31 K | – | 112.15
452.1 K | – | 114.36
452.89 K | – | 116.67
453.87 K | – | 119.46
454.7 K | – | 121.94
455.13 K | – | 123.25
455.92 K | – | 125.63
456.82 K | – | 128.4
457.59 K | – | 130.81
458.4 K | – | 133.37
459.16 K | – | 135.82
460.02 K | – | 138.64
460.42 K | – | 140
461.26 K | – | 142.82
462.1 K | – | 145.65
463.1 K | – | 148.84
463.75 K | – | 151.4
464.39 K | – | 153.69
465.12 K | – | 156.4
465.77 K | – | 158.65
466.55 K | – | 161.57
467.33 K | – | 164.47
468.04 K | – | 167.22
468.81 K | – | 170.16
469.38 K | – | 172.45
470.03 K | – | 175.03
470.6 K | – | 177.34
471.2 K | – | 179.77
471.77 K | – | 182.08
472.23 K | – | 184.14
472.78 K | – | 186.39
473.35 K | – | 188.8
474.12 K | – | 191.58
474.81 K | – | 194.61
475.37 K | – | 197.04

CCOC(C)=O [ethyl acetate]
Details | mass density [kg/m3] | vapor or sublimation pressure [kPa]
291.15 K | 902.88 | –
297.17 K | – | 11.89
298.15 K | 894.4 | –
303.35 K | – | 16.04
306.25 K | – | 18.33
308.86 K | – | 20.64
310.67 K | – | 22.44
312.53 K | – | 24.34
315.44 K | – | 27.63
318.15 K | 869.6 | –
318.46 K | – | 31.33
321.01 K | – | 34.85
323.47 K | – | 38.43
324.8 K | – | 40.61
327.41 K | – | 44.98
328.15 K | 857.17 | –
329.77 K | – | 49.27
331.51 K | – | 52.56
333.07 K | – | 55.72
335.02 K | – | 59.91
336.33 K | – | 62.83
337.91 K | – | 66.49
339.09 K | – | 69.34
340.23 K | – | 72.26
341.69 K | – | 76.02
343.03 K | – | 79.83
344.11 K | – | 82.56
345.53 K | – | 86.85
346.86 K | – | 90.81
348.09 K | – | 94.63
348.75 K | – | 96.74
349.45 K | – | 98.97
349.56 K | – | 99.36
349.76 K | – | 100.07
349.93 K | – | 100.68
350.15 K | – | 101.32
351.12 K | – | 104.65
351.77 K | – | 106.84
352.12 K | – | 108.13
352.94 K | – | 111.21
353.91 K | – | 114.65
354.43 K | – | 116.46
354.93 K | – | 118.56
355.5 K | – | 120.68
355.91 K | – | 122.31
356.37 K | – | 124
357.35 K | – | 127.89
357.92 K | – | 130
358.74 K | – | 133.45
359.44 K | – | 136.34
360.03 K | – | 139.07
360.88 K | – | 142.55
361.73 K | – | 146.37
362.62 K | – | 150.43
363.72 K | – | 155.58
364.25 K | – | 157.94
364.81 K | – | 160.53
365.52 K | – | 163.99
366.29 K | – | 167.81
367 K | – | 171.33
367.64 K | – | 174.65
367.98 K | – | 176.37
368.83 K | – | 180.88
369.49 K | – | 184.43
370.07 K | – | 187.47
370.69 K | – | 190.92
371.5 K | – | 195.35

CCCCCCC [heptane]
Details | mass density [kg/m3] | vapor or sublimation pressure [kPa]
291.15 K | 685.28 | –
298.15 K | 679.48 | –
305.26 K | – | 8.32
310.22 K | – | 10.55
314.93 K | – | 13.09
316.5 K | – | 14.07
318.15 K | 662.06 | –
319.71 K | – | 16.19
323.62 K | – | 19.1
326.44 K | – | 21.45
328.15 K | 653.6 | –
329.04 K | – | 23.79
331.48 K | – | 26.14
333.21 K | – | 27.97
335.5 K | – | 30.51
337.48 K | – | 32.84
339.56 K | – | 35.53
341.35 K | – | 37.87
342.96 K | – | 40.12
344.47 K | – | 42.35
346.04 K | – | 44.75
347.28 K | – | 46.71
348.72 K | – | 49.09
350.12 K | – | 51.49
351.21 K | – | 53.41
352.49 K | – | 55.76
353.62 K | – | 57.88
354.79 K | – | 60.18
356.25 K | – | 63.11
357.84 K | – | 66.42
358.68 K | – | 68.27
359.98 K | – | 71.15
361.33 K | – | 74.25
362.3 K | – | 76.55
363.32 K | – | 79
364.24 K | – | 81.28
365.32 K | – | 84.05
366.2 K | – | 86.3
366.87 K | – | 88.1
367.97 K | – | 91.09
368.83 K | – | 93.46
369.84 K | – | 96.33
370.85 K | – | 98.98
371.11 K | – | 100
371.35 K | – | 100.68
371.56 K | – | 101.32
372.42 K | – | 103.92
373.25 K | – | 106.48
373.98 K | – | 108.71
374.93 K | – | 111.77
375.41 K | – | 113.35
376.29 K | – | 116.21
377.17 K | – | 119.14
377.51 K | – | 120.32
378.49 K | – | 123.7
379.37 K | – | 126.8
380.26 K | – | 130
380.83 K | – | 132.04
392.89 K | – | 182.39
393.79 K | – | 186.6
394.43 K | – | 189.67
395.1 K | – | 192.97
395.73 K | – | 196.04
396.09 K | – | 197.85
396.5 K | – | 199.97
